Reference: ChEMBL document CHEMBL1201862, “PubChem BioAssay data set” (2004)
Activity calls are given as the source filed them.

Key:
[1] = target: Neurotensin receptor type 1 (Homo sapiens, UniProt P30989); assay type: functional;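 note: Image-based confirmatory dose-response assay measuring agonist activity at NTR1; NTR1-expressing U2OS osteosarcoma cells imaged for beta-arrestin GFP spot formation; agonist potency where compounds increase beta-arrestin recruitment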
[2] = target: T1, Replicative DNA helicase DnaB (Mycobacterium tuberculosis, UniProt P9WMR3); experiment: DnaB intein splicing inhibitors, dose response, biochemical, cell-free fluorescence (AID 449749); assay type: functional
T1 sequence (P9WMR3 whole entry): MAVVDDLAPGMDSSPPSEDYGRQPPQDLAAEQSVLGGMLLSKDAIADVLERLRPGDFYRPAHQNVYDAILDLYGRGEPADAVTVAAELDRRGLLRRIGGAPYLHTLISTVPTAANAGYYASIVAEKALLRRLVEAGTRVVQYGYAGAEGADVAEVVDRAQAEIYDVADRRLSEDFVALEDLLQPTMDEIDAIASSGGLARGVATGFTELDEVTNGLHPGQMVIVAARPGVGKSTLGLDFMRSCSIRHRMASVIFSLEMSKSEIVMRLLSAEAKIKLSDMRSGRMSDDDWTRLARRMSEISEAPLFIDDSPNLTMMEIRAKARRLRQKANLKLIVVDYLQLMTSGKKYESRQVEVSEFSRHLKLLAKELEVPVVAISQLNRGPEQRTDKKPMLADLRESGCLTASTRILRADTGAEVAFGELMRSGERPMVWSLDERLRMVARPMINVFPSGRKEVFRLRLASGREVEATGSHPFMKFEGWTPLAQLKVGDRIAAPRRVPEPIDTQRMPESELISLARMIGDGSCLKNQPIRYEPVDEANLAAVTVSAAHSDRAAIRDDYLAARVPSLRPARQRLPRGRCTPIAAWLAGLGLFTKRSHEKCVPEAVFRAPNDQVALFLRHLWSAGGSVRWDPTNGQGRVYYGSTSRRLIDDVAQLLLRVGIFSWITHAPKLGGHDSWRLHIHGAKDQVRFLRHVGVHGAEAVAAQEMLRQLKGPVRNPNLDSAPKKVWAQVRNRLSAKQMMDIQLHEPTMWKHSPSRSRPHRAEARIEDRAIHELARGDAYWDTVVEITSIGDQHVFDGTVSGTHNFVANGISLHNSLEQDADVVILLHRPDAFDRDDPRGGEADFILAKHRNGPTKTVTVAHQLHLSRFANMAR

[3] = target: Multidrug resistance protein CDR2 (Candida albicans (strain SC5314 / ATCC MYA-2876) (Yeast), UniProt P78595); experiment: inhibition of Nile Red efflux via Candida CDR2 – S. cerevisiae AD1-8u, singleplex, Cherry Pick1 hits, dose response (AID 588604); assay type: functional
[4] = target: Nonstructural protein 1 (Influenza A virus, UniProt Q194T2); assay type: functional, Influenza A virus (A/California/07/2009(H1N1))
[5] = Luminescence Cell-Based Dose Retest to Confirm Inhibitors of Cancer Stem Cells. [Related pubchem assays (depositor defined):AID2717, AID2721]; assay type: functional; settings: Homo sapiens
[6] = target: T2, Protein RecA (Mycobacterium tuberculosis, UniProt P9WHJ3); experiment: Fluorescence Cell-Free Homogeneous Dose Retest to Identify Inhibitors of RecA-Intein Splicing Activity. [Related pubchem assays (depositor defined):AID2097, AID2223, AID489010, AID492950]; assay type: functional
T2 sequence (P9WHJ3 whole entry): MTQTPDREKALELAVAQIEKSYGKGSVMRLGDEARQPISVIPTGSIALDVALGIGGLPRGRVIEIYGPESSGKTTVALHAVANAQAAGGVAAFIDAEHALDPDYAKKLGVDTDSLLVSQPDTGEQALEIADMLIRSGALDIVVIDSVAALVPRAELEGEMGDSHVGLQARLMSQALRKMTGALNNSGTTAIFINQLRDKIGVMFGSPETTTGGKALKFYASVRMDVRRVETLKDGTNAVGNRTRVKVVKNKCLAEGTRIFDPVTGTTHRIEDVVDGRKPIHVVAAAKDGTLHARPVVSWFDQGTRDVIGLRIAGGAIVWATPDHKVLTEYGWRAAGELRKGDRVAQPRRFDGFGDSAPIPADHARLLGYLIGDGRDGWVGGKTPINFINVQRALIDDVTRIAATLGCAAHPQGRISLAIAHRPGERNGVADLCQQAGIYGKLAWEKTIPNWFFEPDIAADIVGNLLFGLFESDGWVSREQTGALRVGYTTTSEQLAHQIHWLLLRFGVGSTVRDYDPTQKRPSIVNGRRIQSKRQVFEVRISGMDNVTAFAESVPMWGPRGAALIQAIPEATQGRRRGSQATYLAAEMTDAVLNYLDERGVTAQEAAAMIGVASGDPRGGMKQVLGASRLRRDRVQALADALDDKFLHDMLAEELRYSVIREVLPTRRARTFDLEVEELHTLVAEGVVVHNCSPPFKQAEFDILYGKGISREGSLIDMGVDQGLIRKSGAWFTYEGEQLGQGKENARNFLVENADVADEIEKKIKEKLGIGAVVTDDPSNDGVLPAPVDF

Sequence of Neurotensin receptor type 1 (P30989 whole entry): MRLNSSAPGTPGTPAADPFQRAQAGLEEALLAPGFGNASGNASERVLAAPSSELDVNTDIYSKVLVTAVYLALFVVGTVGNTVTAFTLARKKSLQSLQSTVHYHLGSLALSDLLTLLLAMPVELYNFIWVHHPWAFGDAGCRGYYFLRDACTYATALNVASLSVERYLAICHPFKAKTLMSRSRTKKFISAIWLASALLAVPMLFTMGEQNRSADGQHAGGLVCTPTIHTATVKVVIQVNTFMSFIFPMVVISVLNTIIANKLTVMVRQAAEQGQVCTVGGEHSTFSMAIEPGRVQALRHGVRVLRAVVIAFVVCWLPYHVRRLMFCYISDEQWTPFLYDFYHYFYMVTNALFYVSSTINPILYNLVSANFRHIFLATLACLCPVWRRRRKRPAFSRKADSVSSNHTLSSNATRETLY
Sequence of Multidrug resistance protein CDR2 (P78595 whole entry): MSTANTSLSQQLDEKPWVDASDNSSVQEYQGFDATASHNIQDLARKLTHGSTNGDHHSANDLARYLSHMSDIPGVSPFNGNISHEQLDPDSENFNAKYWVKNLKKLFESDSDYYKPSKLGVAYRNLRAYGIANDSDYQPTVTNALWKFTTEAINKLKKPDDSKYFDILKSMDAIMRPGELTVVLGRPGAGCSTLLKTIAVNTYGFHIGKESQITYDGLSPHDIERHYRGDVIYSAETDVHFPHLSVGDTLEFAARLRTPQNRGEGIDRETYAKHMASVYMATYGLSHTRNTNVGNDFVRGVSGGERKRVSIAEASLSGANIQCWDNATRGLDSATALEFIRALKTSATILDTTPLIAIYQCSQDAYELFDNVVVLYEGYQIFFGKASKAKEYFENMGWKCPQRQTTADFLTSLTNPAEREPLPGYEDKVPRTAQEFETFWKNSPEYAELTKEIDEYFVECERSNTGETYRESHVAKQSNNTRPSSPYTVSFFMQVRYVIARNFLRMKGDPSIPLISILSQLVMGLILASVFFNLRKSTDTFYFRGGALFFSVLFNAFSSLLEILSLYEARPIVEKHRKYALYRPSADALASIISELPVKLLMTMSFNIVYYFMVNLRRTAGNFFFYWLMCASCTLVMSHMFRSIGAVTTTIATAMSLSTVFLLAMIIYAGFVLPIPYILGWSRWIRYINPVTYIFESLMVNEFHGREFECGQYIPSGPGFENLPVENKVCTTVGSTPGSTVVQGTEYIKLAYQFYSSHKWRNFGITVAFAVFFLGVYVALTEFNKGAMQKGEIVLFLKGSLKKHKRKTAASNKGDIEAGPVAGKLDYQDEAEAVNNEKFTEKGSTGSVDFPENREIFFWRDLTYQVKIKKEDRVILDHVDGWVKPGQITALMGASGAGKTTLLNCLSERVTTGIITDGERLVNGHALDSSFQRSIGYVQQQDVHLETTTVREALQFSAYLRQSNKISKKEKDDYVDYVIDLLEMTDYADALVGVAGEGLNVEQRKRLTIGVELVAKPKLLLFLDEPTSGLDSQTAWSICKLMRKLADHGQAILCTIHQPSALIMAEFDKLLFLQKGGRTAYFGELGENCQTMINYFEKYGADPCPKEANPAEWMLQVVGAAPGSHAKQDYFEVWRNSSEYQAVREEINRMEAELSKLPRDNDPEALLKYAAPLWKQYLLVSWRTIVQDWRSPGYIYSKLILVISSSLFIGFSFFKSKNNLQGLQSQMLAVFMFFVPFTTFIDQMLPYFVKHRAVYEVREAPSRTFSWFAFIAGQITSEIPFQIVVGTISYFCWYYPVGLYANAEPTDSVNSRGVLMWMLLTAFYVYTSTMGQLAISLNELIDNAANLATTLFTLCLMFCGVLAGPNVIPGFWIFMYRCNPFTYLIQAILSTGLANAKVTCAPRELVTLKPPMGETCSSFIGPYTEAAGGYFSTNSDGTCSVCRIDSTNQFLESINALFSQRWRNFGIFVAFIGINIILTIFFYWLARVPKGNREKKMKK
Sequence of Nonstructural protein 1 (Q194T2 whole entry): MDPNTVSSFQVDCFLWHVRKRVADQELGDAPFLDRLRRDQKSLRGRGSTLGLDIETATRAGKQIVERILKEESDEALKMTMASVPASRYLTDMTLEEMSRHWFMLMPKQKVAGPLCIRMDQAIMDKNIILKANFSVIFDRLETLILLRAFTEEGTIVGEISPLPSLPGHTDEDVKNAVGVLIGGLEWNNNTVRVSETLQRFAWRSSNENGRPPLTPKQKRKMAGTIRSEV

CCCCCc1cc(=O)oc2c(C(CCN3CCCC(C)C3)c3ccc(N(C)C)cc3)c(OC)cc(OC)c12 (stereo unspecified)
active: EC50 [1] 17.7 µM | AC50 [2] 8.48 µM | EC50 [3] 25.4 µM | IC50 [4] 5.48 µM | AC50 [5] 5.3 µM | EC50 [6] 8.08 µM
